Measurements: patent US20110294810A1, “SUBSTITUTED (PYRIDYL)-AZINYLAMINE DERIVATIVES AS PLANT PROTECTION AGENTS” (priority 2008, published 2011)
Where two headings read alike, the source gives them in different places.

Test: Measurement of logP values by HPLC on reversed phase columns (EEC directive 79/831 Annex V.A8)
Assay type: physicochemical
Conditions: for chromatographic logP: reversed phase HPLC column
[1] = HPLC on reversed phase columns, usually LC-MS at pH 2.7 with 0.1% formic acid in water and acetonitrile, linear gradient 10% to 95% acetonitrile, read-out: log p
[2] = HPLC on reversed phase columns, usually LC-MS at pH 2.7 with 0.1% formic acid in water and acetonitrile, linear gradient 10% to 95% acetonitrile
[3] = HPLC on reversed phase columns, usual method: LC-MS at pH 2.7, 0.1% formic acid in water / acetonitrile, linear gradient 10% to 95% acetonitrile, read-out: logP

Row | log p (pH 2.7) | SMILES | further results
1 | 2.52 | CC(C)C(=O)NCc1cc(-c2ccnc(Nc3cccc(Cl)c3)n2)ccn1 [Compound A2, N-[(4-{2-[(3-chlorophenyl)amino]pyrimidin-4-yl}pyridin-2-yl)methyl]-2-methyl propanamide] | 
2 | 2.51 | CCCC(=O)NCc1cc(-c2ccnc(Nc3cccc(Cl)c3)n2)ccn1 [Compound A5] | 
3 | 2.84 | CC(C)CC(=O)NCc1cc(-c2ccnc(Nc3cccc(Cl)c3)n2)ccn1 [Compound A9] | 
4 | 2.39 | O=C(NCc1cc(-c2ccnc(Nc3cccc(Cl)c3)n2)ccn1)C1CC1 [Compound A12] | 
5 | 2.88 | CC(C)(C)C(=O)NCc1cc(-c2ccnc(Nc3cccc(Cl)c3)n2)ccn1 [Compound A13] | 
6 | 3.29 | COCC(=S)NCc1cc(-c2ccnc(Nc3cccc(Cl)c3)n2)ccn1 [Compound A16] | 
7 | 3.02 | CC(=O)OCc1cc(-c2ccnc(Nc3cccc(Cl)c3)n2)ccn1 [Compound A18] | 
8 | 4.73 | CCCCCC(=O)OCc1cc(-c2ccnc(Nc3cccc(Cl)c3)n2)ccn1 [Compound A19] | 
9 | 2.35 | CC(=O)OCc1cc(-c2ccnc(N(C(C)=O)c3cccc(Cl)c3)n2)ccn1 [Compound A26] | 
10 | 3.89 | CC(C)C(=O)OCc1cc(-c2ccnc(Nc3cccc(Cl)c3)n2)ccn1 [Compound A31] | 
11 | 3.73 | C#CCCCC(=O)OCc1cc(-c2ccnc(Nc3cccc(Cl)c3)n2)ccn1 [Compound A33] | 
12 | 4.41 | O=C(OCc1cc(-c2ccnc(Nc3cccc(Cl)c3)n2)ccn1)C1CCCC1 [Compound A36] | 
13 | 1.57 | CN(C)Cc1cc(-c2ccnc(Nc3cccc(Cl)c3)n2)ccn1 [Compound A41] | 
14 | 1.67 | Clc1cccc(Nc2nccc(-c3ccnc(CN4CC=CC4)c3)n2)c1 [Compound A49] | 
15 | 1.66 | CCN(C)Cc1cc(-c2ccnc(Nc3cccc(Cl)c3)n2)ccn1 [Compound A52] | 
16 | 1.78 | CCN(CC)Cc1cc(-c2ccnc(Nc3cccc(Cl)c3)n2)ccn1 [Compound A53] | 
17 | 1.81 | CCCN(C)Cc1cc(-c2ccnc(Nc3cccc(Cl)c3)n2)ccn1 [Compound A65] | 

Row | log p (pH 2.7) | SMILES | further results
18 | 3.48 | CCCSCc1cc(-c2ccnc(Nc3cccc(Cl)c3)n2)ccn1 [Compound A70] | 
19 | 3.35 | N#CCCCCSCc1cc(-c2ccnc(Nc3cccc(Cl)c3)n2)ccn1 [Compound A76] | 
20 | 5 | CCC(C)CSCc1cc(-c2ccnc(Nc3cccc(Cl)c3)n2)ccn1 (stereo not drawn) [Compound A77] | 
21 | 4.39 | Clc1cccc(Nc2nccc(-c3ccnc(CSCc4ccccc4)c3)n2)c1 [Compound A83] | 
22 | 3.78 | C=C(C)C(=O)OCc1cc(-c2ccnc(Nc3cccc(Cl)c3)n2)ccn1 [Compound A87] | 
23 | 3.92 | C=C(C)CC(=O)OCc1cc(-c2ccnc(Nc3cccc(Cl)c3)n2)ccn1 [Compound A88] | 
24 | 2.8 | CCCC(=O)NC(C)c1cc(-c2ccnc(Nc3cccc(Cl)c3)n2)ccn1 (stereo not drawn) [Compound A90] | 
25 | 2.64 | CC(NC(=O)C1CC1)c1cc(-c2ccnc(Nc3cccc(Cl)c3)n2)ccn1 (stereo not drawn) [Compound A93] | 
26 | 2.94 | N#CCc1cc(-c2ccnc(Nc3cccc(Cl)c3)n2)ccn1 [Compound A94] | 
27 | 3.17 | CCSCCN(C=O)Cc1cc(-c2ccnc(Nc3cccc(Cl)c3)n2)ccn1 [Compound A96] | 
28 | 3.1 | CC(C)(C)OC(=O)NCc1cc(-c2ncnc(Nc3cccc(Cl)c3)n2)ccn1 [Compound C1] | 
29 | 2.84 | C=COC(=O)NCc1cc(-c2ncnc(Nc3cccc(Cl)c3)n2)ccn1 [Compound C5] | 
30 | 2.88 | O=C(NCc1cc(-c2ccnc(Nc3cccc(Cl)c3)n2)ccn1)C1CCCC1 [Example A3] | 
31 | 2.6 | C=C(C)C(=O)NCc1cc(-c2ccnc(Nc3cccc(Cl)c3)n2)ccn1 [Example A8] | 
32 | 2.33 | COCC(=O)NCc1cc(-c2ccnc(Nc3cccc(Cl)c3)n2)ccn1 [Example A11] | 
33 | 3.83 | CCCC(=O)OCc1cc(-c2ccnc(Nc3cccc(Cl)c3)n2)ccn1 [Example A20] | 

The next lines start with the compound.

Row | SMILES | log p (pH 2.7) | further results
34 | NCc1cc(-c2ccnc(Nc3cccc(Cl)c3)n2)ccn1 [Compound A1, 4-[2-(aminomethyl)pyridin-4-yl]-N-(3-chlorophenyl)pyrimidin-2-amine] |  | chromatographic logP [1]: 1.52
35 | CCC(C)CNC(=S)NCc1cc(-c2ccnc(Nc3cccc(Cl)c3)n2)ccn1 (stereo not drawn) [Compound A6, 1-[(4-{2-[(3-chlorophenyl)amino]pyrimidin-4-yl}pyridin-2-yl)methyl]-3-(2-methylbutyl)thiourea] |  | chromatographic logP [1]: 3.59
36 | O=C(NCc1cc(-c2ccnc(Nc3cccc(Cl)c3)n2)ccn1)C1CCC1 [Compound A7] | 2.69 | 
37 | CC(C)=CC(=O)NCc1cc(-c2ccnc(Nc3cccc(Cl)c3)n2)ccn1 [Compound A10] | 2.75 | 
38 | ClCc1cc(-c2ccnc(Nc3cccc(Cl)c3)n2)ccn1 [Compound A15, 4-[2-(chloromethyl)pyridin-4-yl]-N-(3-chlorophenyl)pyrimidin-2-amine] |  | chromatographic logP [1]: 3.46
39 | Clc1cccc(Nc2nccc(-c3ccnc(CN4CCCCC4)c3)n2)c1 [Compound A17, N-(3-chlorophenyl)-4-[2-(piperidin-1-ylmethyl)pyridin-4-yl]pyrimidin-2-amine] |  | chromatographic logP [1]: 1.81
40 | CC(C)CC(=O)OCc1cc(-c2ccnc(Nc3cccc(Cl)c3)n2)ccn1 [Compound A21] | 4.26 | 
41 | COCc1cc(-c2ccnc(N(C)c3cccc(Cl)c3)n2)ccn1 [Compound A25, N-(3-chlorophenyl)-4-[2-(methoxymethyl)pyridin-4-yl]-N-methylpyrimidin-2-amine] |  | chromatographic logP [1]: 3.02
42 | C=CCC(=O)OCc1cc(-c2ccnc(Nc3cccc(Cl)c3)n2)ccn1 [Compound A37, (4-{2-[(3-chlorophenyl)amino]pyrimidin-4-yl}pyridin-2-yl)methyl but-3-enoate] |  | chromatographic logP [1]: 3.64
43 | CCCCN(C)Cc1cc(-c2ccnc(Nc3cccc(Cl)c3)n2)ccn1 [Compound A38] |  | log p [2]: 1.97
44 | CN(Cc1cc(-c2ccnc(Nc3cccc(Cl)c3)n2)ccn1)CC1OCCO1 [Compound A44] |  | log p [2]: 1.79
45 | CC1(C)CCCN(Cc2cc(-c3ccnc(Nc4cccc(Cl)c4)n3)ccn2)C1 [Compound A45] |  | log p [2]: 2.1
46 | CC1CCCN1Cc1cc(-c2ccnc(Nc3cccc(Cl)c3)n2)ccn1 (stereo not drawn) [Compound A46] |  | log p [2]: 1.76
47 | CN(Cc1cc(-c2ccnc(Nc3cccc(Cl)c3)n2)ccn1)C1CCCC1 [Compound A51] | 1.95 | 
48 | CN(C)CCN(C)Cc1cc(-c2ccnc(Nc3cccc(Cl)c3)n2)ccn1 [Compound A58] |  | log p [2]: 1.44
49 | C=CCN(C)Cc1cc(-c2ccnc(Nc3cccc(Cl)c3)n2)ccn1 [Compound A59] |  | log p [2]: 1.75
50 | CC(C)CN(C)Cc1cc(-c2ccnc(Nc3cccc(Cl)c3)n2)ccn1 [Compound A60] |  | log p [2]: 1.93
51 | CCC(C)N(C)Cc1cc(-c2ccnc(Nc3cccc(Cl)c3)n2)ccn1 (stereo not drawn) [Compound A61] |  | log p [2]: 1.88

Row | SMILES | log p (pH 2.7) | further results
52 | CN1CCC(N(C)Cc2cc(-c3ccnc(Nc4cccc(Cl)c4)n3)ccn2)CC1 [Compound A63] |  | log p [2]: 1.07
53 | CN(CCC#N)Cc1cc(-c2ccnc(Nc3cccc(Cl)c3)n2)ccn1 [Compound A64] | 1.74 | 
54 | CCSCc1cc(-c2ccnc(Nc3cccc(Cl)c3)n2)ccn1 [Compound A69, N-(3-chlorophenyl)-4-{2-[(ethylsulfanyl)methyl]pyridin-4-yl}pyrimidin-2-amine] |  | chromatographic logP [1]: 3.64
55 | CCCCSCc1cc(-c2ccnc(Nc3cccc(Cl)c3)n2)ccn1 [Compound A71] | 4.56 | 
56 | COCCOCCSCc1cc(-c2ccnc(Nc3cccc(Cl)c3)n2)ccn1 [Compound A73] | 3.11 | 
57 | COCC(=O)NC(C)c1cc(-c2ccnc(Nc3cccc(Cl)c3)n2)ccn1 (stereo not drawn) [Compound A80] | 2.68 | 
58 | COCC(=O)NC(C)c1cc(-c2ccnc(N(C(=O)COC)c3cccc(Cl)c3)n2)ccn1 (stereo not drawn) [Compound A81] | 2.11 | 
59 | CC(C)CSCc1cc(-c2ccnc(Nc3cccc(Cl)c3)n2)ccn1 [Compound A84] | 4.54 | 
60 | CC(C)=CC(=O)OCc1cc(-c2ccnc(Nc3cccc(Cl)c3)n2)ccn1 [Compound A89] | 4.01 | 
61 | CC(c1cc(-c2ccnc(N(C(=O)C3CC3)c3cccc(Cl)c3)n2)ccn1)N(C(=O)C1CC1)C(=O)C1CC1 (stereo not drawn) [Compound A91] | 3.71 | 
62 | CC(NC(=O)C1CC1)c1cc(-c2ccnc(N(C(=O)C3CC3)c3cccc(Cl)c3)n2)ccn1 (stereo not drawn) [Compound A92] | 2.49 | 
63 | CCC(C)CNC(C)c1cc(-c2ccnc(Nc3cccc(Cl)c3)n2)ccn1 (stereo not drawn) [Compound A97, N-(3-chlorophenyl)-4-(2-{1-[(2-methylbutyl)amino]ethyl}pyridin-4-yl)pyrimidin-2-amine] |  | chromatographic logP [3]: 2.13
64 | CC(=O)OC(C)c1cc(-c2ccnc(Nc3cccc(Cl)c3)n2)ccn1 (stereo not drawn) [Compound A98, 1-(4-{2-[(3-chlorophenyl)amino]pyrimidin-4-yl}pyridin-2-yl)ethyl acetate] |  | chromatographic logP [3]: 3.33
65 | COCC(C)C(=O)OC(C)c1cc(-c2ccnc(Nc3cccc(Cl)c3)n2)ccn1 (stereo not drawn) [Compound A99] | 3.83 | 
66 | CC(C)OC(=O)NCc1cc(-c2ncnc(Nc3cccc(Cl)c3)n2)ccn1 [Compound C3] | 2.94 | 
67 | CCOC(=O)NCc1cc(-c2ncnc(Nc3cccc(Cl)c3)n2)ccn1 [Compound C4, ethyl[(4-{4-[(3-chlorophenyl)amino]-1,3,5-triazin-2-yl}pyridin-2-yl)methyl]carbamate] |  | chromatographic logP (LC-MS at pH 2.7, 0.1% formic acid in water / acetonitrile, gradient 10% to 95% acetonitrile, read-out: log p): 2.64
68 | NCc1cc(-c2ncnc(Nc3cccc(Cl)c3)n2)ccn1 [Compound C6, 4-[2-(aminomethyl)pyridin-4-yl]-N-(3-chlorophenyl)-1,3,5-triazin-2-amine] |  | chromatographic logP (LC-MS at pH 7.8, 0.001 molar ammonium hydrogen carbonate in water, gradient 10% to 95% acetonitrile, read-out: log p [c]): 1.74
69 | CCC(=O)OCc1cc(-c2ccnc(Nc3cccc(Cl)c3)n2)ccn1 [Example A22] | 3.44 | 
